We go through 2 compounds from US9232796B2, “Herbicidal compositions comprising 4-amino-3-chloro-5-fluoro-6-(4-chloro-2-fluoro-3-methoxyphenyl) pyridine-2-carboxylic acid or a derivative thereof and acetyl-CoA carboxylase (ACCase) inhibitors” (DOW AGROSCIENCES LLC, priority 2012, dated 2016).

One experiment concerns CYPDI. The experiment in a line: Example I postemergence foliar-applied, greenhouse, direct seeded rice weeds. The experiment is classed as in vivo, Cyperus difformis L. The note with it: 4.38 gae/ha. From the text: (§1) Seeds or nutlets of the desired test plant species were planted in a soil matrix prepared by mixing a loam or sandy loam soil (e.g., 28.6 percent silt, 18.8 percent clay, and 52.6 percent sand, with a pH of about 5.8 and an organic matter content of about 1.8 percent) and calcareous grit in an 80 to 20 ratio. The soil matrix was contained in plastic pots with a volume of 1 quart and a surface area of 83.6 square centimeters (cm^2). When required to ensure good germination and healthy plants, a fungicide treatment and/or other chemical or physical treatment was applied. The plants were grown for 8-22 days in a greenhouse with an approximate 14 hr. photoperiod which was maintained at about 29° C. during the day and 26° C. during the night. Nutrients (Peters Excel® 15-5-15 5-Ca 2-Mg and iron chelate) were applied in the irrigation solution as needed and water was added on a regular basis. Supplemental lighting was provided with overhead metal halide 1000-Watt lamps as necessary. The plants were employed for testing when they reached the first through fourth true leaf stage.
Treatments consisted of the acid or esters of 4-amino-3-chloro-5-fluoro-6-(4-chloro-2-fluoro-3-methoxy-phenyl)pyridine-2-carboxylic acid (Compound A), each formulated as an SC (suspension concentrate), and various herbicidal components alone and in combination.
Other herbicidal components were applied on an acid equivalent (ae) or active ingredient (ai) basis and included acetyl coA carboxylase (ACCase)-inhibiting herbicides (cyclohexanedione and aryloxyphenoxypropionate chemical classes) cyhalofop-butyl formulated as Clincher® SF (285 gr ai/L EC), diclofop-methyl formulated as Hoelon® 3EC, fenoxaprop-p-ethyl+isoxadifen-ethyl formulated as RiceStar® HT (0.58 lb./gal EC), fenoxaprop-p-ethyl+mefenpyr diethyl formulated as Puma® IEC, metamifop formulated as Metamifop EC, haloxyfop-methyl formulated as Gallant Super®, fluazifop-p-butyl formulated as Fusilade® DX, quizalofop-p-ethyl formulated as Assure® II, profoxydim formulated as Aura® 20EC, clethodim applied as Intensity®, sethoxydim formulated as Poast®, and tralkoxydim formulated as Achieve®.
(§2) Treatment requirements were calculated based upon the rates being tested, the concentration of active ingredient or acid equivalent in the formulation, and a 12 mL application volume at a rate of 187 L/ha.
For treatments comprised of formulated compounds, measured amounts of compounds were placed individually in 25 mL glass vials and diluted in a volume of 1.25% (v/v) Agri-Dex® crop oil concentrated to obtain 12× stock solutions. […] Application solutions were prepared by adding an appropriate amount of each stock solution (e.g., 1 mL) and diluted to the appropriate final concentrations with the addition of 10 mL of an aqueous mixture of 1.25% (v/v) crop oil concentrate so that the final spray solutions contained 1.25+/−0.05% (v/v) crop oil concentrate.
All stock solutions and applications solutions were visually inspected for compound compatibility prior to application. […]
(§3) The treated plants and control plants were placed in a greenhouse as described above and watered by sub-irrigation to prevent wash-off of the test compounds. After approximately 3 weeks, the condition of the test plants as compared with that of the untreated plants was determined visually and scored on a scale of 0 to 100 percent where 0 corresponds to no injury or growth inhibition and 100 corresponds to complete kill. […]

The test system of another experiment is APESV. The experiment in a line: Example IV postemergence foliar-applied, greenhouse, cereal crops weeds. The experiment is classed as in vivo, Apera spica-venti (L.) Beauv. As to the method:
(§4) Seeds of the desired test plant species were planted in Sun Gro MetroMix® 306 planting mixture, which typically has a pH of 6.0 to 6.8 and an organic matter content of about 30 percent, in plastic pots with a surface area of 103.2 square centimeters (cm^2). […] The plants were grown for 7-36 days in a greenhouse with an approximate 14 hour photoperiod which was maintained at about 18° C. during the day and about 17° C. during the night. Nutrients and water were added on a regular basis and supplemental lighting was provided with overhead metal halide 1000-Watt lamps as necessary. The plants were employed for testing when they reached the second or third true leaf stage.
(§5) Treatments consisted of the benzyl ester of 4-amino-3-chloro-5-fluoro-6-(4-chloro-2-fluoro-3-methoxy-phenyl)pyridine-2-carboxylic acid (Compound A), formulated as an SC, a second cereal herbicide alone and then both in combination.
(§6) Other herbicidal components were applied on an active ingredient basis and included acetyl-CoA carboxylase (ACCase)-inhibiting herbicides clodinafop-propargyl, fenoxaprop-P-ethyl, pinoxaden and tralkoxydim.
(§7) Measured aliquots of benzyl ester of 4-amino-3-chloro-5-fluoro-6-(4-chloro-2-fluoro-3-methoxy-phenyl)pyridine-2-carboxylic acid (Compound A) were placed in 25 milliliter (mL) glass vials and diluted in a volume of 1.25% (v/v) Agri-Dex® crop oil concentrate to obtain stock solutions. Compound requirements are based upon a 12 mL application volume at a rate of 187 liters per hectare (L/ha). […] Formulated compounds were applied to the plant material with an overhead Mandel track sprayer equipped with an 8002E nozzle calibrated to deliver 187 L/ha over an application area of 0.503 square meters (m^2) at a spray height of 18 inches (46 cm) above average plant canopy. Control plants were sprayed in the same manner with the solvent blank.
(§8) The treated plants and control plants were placed in a greenhouse as described above and watered by sub-irrigation to prevent wash-off of the test compounds. After 20-22 days, the condition of the test plants as compared with that of the control plants was determined visually and scored on a scale of 0 to 100 percent where 0 corresponds to no injury and 100 corresponds to complete kill.
(§9) Colby's equation was used to determine the herbicidal effects expected from the mixtures (Colby, S. R. 1967. Calculation of the synergistic and antagonistic response of herbicide combinations. Weeds 15:20-22.).
(§10) The following equation was used to calculate the expected activity of mixtures containing two active ingredients, A and B: Expected=A+B−(A×B/100)

The next experiment concerns DIGSA. The experiment in a line: Example I postemergence foliar-applied, greenhouse, direct seeded rice weeds. It is filed as in vivo, Digitaria sanguinalis (L.) Scop.
Description: as §1
Treatments consisted of the acid or esters of 4-amino-3-chloro-5-fluoro-6-(4-chloro-2-fluoro-3-methoxy-phenyl)pyridine-2-carboxylic acid (Compound A), each formulated as an SC (suspension concentrate), and various herbicidal components alone and in combination. […]
as §2
For treatments comprised of formulated compounds, measured amounts of compounds were placed individually in 25 mL glass vials and diluted in a volume of 1.25% (v/v) Agri-Dex® crop oil concentrated to obtain 12× stock solutions. […]
as §3

Another experiment relates to KCHSC. The experiment in a line: Example IV postemergence foliar-applied, greenhouse, cereal crops weeds. The experiment is classed as in vivo, Kochia scoparia (L.) Schrad. As to the method:
as §4, §5, §6, §7, §8, §9, §10

Setting [1] is: Compound A Benzyl Ester 5 gai/ha.
Setting [2] is: Compound A Benzyl Ester 10 gai/ha.

Consider `COc1c(Cl)ccc(-c2nc(C(=O)O)c(Cl)c(N)c2F)c1F` [Compound A Acid, 4-amino-3-chloro-6-(4-chloro-2-fluoro-3-methoxyphenyl)-5-fluoropyridine-2-carboxylic acid], for which, in the experiment on CYPDI, the “Visual Weed Control (%) - 20 DAA CYPDI Obs” value was 80% and the “Visual Weed Control (%) - 22 DAA CYPDI Obs” value was 60%.

For `COc1c(Cl)ccc(-c2nc(C(=O)OCc3ccccc3)c(Cl)c(N)c2F)c1F` [Compound A Benzyl Ester, benzyl ester of 4-amino-3-chloro-5-fluoro-6-(4-chloro-2-fluoro-3-methoxy-phenyl)pyridine-2-carboxylic acid], the “Visual Weed Control (%) - 21 DAA APESV Obs” value in the experiment on APESV (setting [1]) and in the experiment with APESV (setting [2]) was 0% throughout. Further, the “Visual Weed Control (%) - 20 DAA DIGSA Obs” value amounted to 15% with DIGSA (8 gae/ha), 25% with DIGSA (16 gae/ha) and 35% with DIGSA (32 gae/ha). Besides, the “Visual Weed Control (%) - 21 DAA KCHSC Obs” value in the experiment on KCHSC (setting [1]) is reported as 20%; in the experiment on KCHSC (setting [2]), 30%.
